According to ChEMBL document CHEMBL1152509, “ssDNA aptamers that recognize diclofenac and 2-anilinophenylacetic acid” (Bioorg Med Chem, 2009):
The source made the active and inactive calls. No cut-off for these calls is given here.

Legend:
Assay type in all cases: nucleic-acid assay
Nucleic Acid [1] = test: Binding affinity to D10/DA24 ssDNA aptamer
Nucleic Acid [2] = test: Binding affinity to D3 ssDNA aptamer
Nucleic Acid [3] = test: Binding affinity to D16 ssDNA aptamer
Nucleic Acid [4] = test: Binding affinity to D22 ssDNA aptamer

Compound | Kd (Nucleic Acid [1]) | Kd (Nucleic Acid [2]) | Kd (Nucleic Acid [3]) | Kd (Nucleic Acid [4]) | Activity (Nucleic Acid [2]) | Activity (Nucleic Acid [3]) | Activity (Nucleic Acid [4])
O=C(O)Cc1ccccc1Nc1c(Cl)cccc1Cl [DICLOFENAC] | 101 nM | 42.7 nM | 149 nM | 166 nM | – | – | –
O=C(O)Cc1ccccc1Nc1ccccc1 | – | – | – | – | inactive | Active | Active
